Reference: ChEMBL document CHEMBL4819078, “Bioactive Dimeric Tetrahydroxanthones with 2,2'- and 4,4'-Axial Linkages from the Entomopathogenic Fungus Aschersonia confluens” (J Nat Prod, 2021)
In brackets after ≈: the same amount, converted by molar mass. Activity calls are given as the source filed them. The rule behind the calls is not given here.

Key:
[1] = test system: Vero; experiment: Cytotoxicity against African green monkey Vero cells by green fluorescent protein microplate assay; format: cell-based; conditions: Chlorocebus sabaeus
[2] = test system: MCF7; experiment: cells; conditions: Homo sapiens
Description: Cytotoxicity against human MCF7 cells assessed as reduction in cell viability by resazurin based fluorescence assay

[3] = test system: NCI-H187; experiment: cells; conditions: Homo sapiens
Description: Cytotoxicity against human NCI-H187 cells assessed as reduction in cell viability by resazurin based fluorescence assay

[4] = test system: Klebsiella pneumoniae; experiment: Antibacterial activity against Klebsiella pneumoniae ATCC 700603 by CLSI based microplate assay; format: functional
[5] = test system: Enterococcus faecium; experiment: Antibacterial activity against Enterococcus faecium ATCC 51559 by CLSI based microplate assay; format: functional
[6] = test system: Mycobacterium tuberculosis; experiment: Antitubercular activity against Mycobacterium tuberculosis H37Ra ATCC 25177 assessed as reduction in bacterial growth after 6 to 8 days by green fluorescent protein microplate assay; format: functional; conditions: time 6-8 day
[7] = test system: Candida albicans; experiment: Antifungal activity against Candida albicans ATCC 90028 by resazurin microplate assay; format: functional
[8] = test system: Bacillus cereus; experiment: Antibacterial activity against Bacillus cereus ATCC 11778 by resazurin microplate assay; format: functional
[9] = test system: Acinetobacter baumannii; experiment: Antibacterial activity against Acinetobacter baumannii ATCC 19606 by CLSI based microplate assay; format: functional; conditions: ATCC 19606 = CIP 70.34 = JCM 6841
[10] = test system: Plasmodium falciparum; experiment: Antimalarial activity against multi drug-resistant Plasmodium falciparum K1 infected in human erythrocytes assessed as inhibition of [G-3H]hypoxanthine uptake preincubated for 24 hrs followed by [G-3H]hypoxanthine addition and measured after 18 hrs by scintillation counting method; format: functional, organism-based
[11] = test system: Pseudomonas aeruginosa; experiment: Antibacterial activity against Pseudomonas aeruginosa ATCC 15692 by CLSI based microplate assay; format: functional
[12] = test system: Escherichia coli; experiment: Antibacterial activity against Escherichia coli ATCC 25922 by CLSI based microplate assay; format: functional
[13] = test system: KB; experiment: cells; conditions: Homo sapiens
Description: Cytotoxicity against human KB cells assessed as reduction in cell viability by resazurin based fluorescence assay

| SMILES | IC50 [1] [nM] | IC50 [2] [nM] | IC50 [3] [nM] | Activity [4] | MIC [5] [µg/mL] | MIC [6] [µg/mL] | Activity [7] | Activity [8] | Activity [9] | IC50 [10] [nM] | Activity [11] | Activity [12] | IC50 [13] [nM] | also measured |
| --- | --- | --- | --- | --- | --- | --- | --- | --- | --- | --- | --- | --- | --- | --- |
| CO[C@H]1CC=C2C(=O)c3c(cc(C)c(-c4c(C)cc5c(c4O)C(=O)C4=CC[C@H](OC)[C@@H](O)[C@]4(C)O5)c3O)O[C@@]2(C)[C@@H]1O [ASCHERXANTHONE A] | 900 | 16800 | 500 | inactive | > 50 | 6.3 (≈ 10.9 µM) | inactive | inactive | inactive | 1000 | inactive | inactive | 3200 |  |
| CO[C@H]1CC=C2C(=O)c3c(O)cc(C)c(-c4c(C)cc(O)c5c4O[C@]4(C)C(=CC[C@H](OC)[C@H]4O)C5=O)c3O[C@@]2(C)[C@@H]1O | 1100 | 7500 | 800 | inactive | > 50 | 6.3 (≈ 10.9 µM) | inactive | inactive | inactive | 900 | inactive | inactive | 1500 |  |
| C[C@@H]1[C@H](O)[C@@H](C)/C=C/C=C/C=C/C=C/C=C/C=C/C=C/[C@H](O[C@@H]2O[C@H](C)[C@@H](O)[C@H](N)[C@@H]2O)C[C@@H]2O[C@](O)(C[C@@H](O)C[C@@H](O)[C@H](O)CC[C@@H](O)C[C@@H](O)CC(=O)O[C@H]1C)C[C@H](O)[C@H]2C(=O)O [AMPHOTERICIN B] |  |  |  |  |  |  |  |  |  |  |  |  |  | MIC [7]: 0.1 µg/mL (≈ 0.108 µM) |
| CC[C@H]1OC(=O)[C@H](C)[C@@H](O[C@H]2C[C@@](C)(OC)[C@@H](O)[C@H](C)O2)[C@H](C)[C@@H](O[C@@H]2O[C@H](C)C[C@H](N(C)C)[C@H]2O)[C@](C)(O)C[C@@H](C)C(=O)[C@H](C)[C@@H](O)[C@]1(C)O [ERYTHROMYCIN] |  |  |  |  |  |  |  |  |  |  |  |  |  | MIC [4]: 200 µg/mL (≈ 273 µM); MIC [9]: 12.5 µg/mL (≈ 17 µM); MIC [11]: 32 µg/mL (≈ 43.6 µM); MIC [12]: 25 µg/mL (≈ 34.1 µM) |
| CO[C@H]1/C=C/O[C@@]2(C)Oc3c(C)c(O)c4c(O)c(c(/C=N/N5CCN(C)CC5)c(O)c4c3C2=O)NC(=O)/C(C)=C\C=C\[C@H](C)[C@H](O)[C@@H](C)[C@@H](O)[C@@H](C)[C@H](OC(C)=O)[C@@H]1C [RIFAMPIN] |  |  |  |  | 3.1 (≈ 3.77 µM) |  |  |  |  |  |  |  |  | MIC [4]: 25 µg/mL (≈ 30.4 µM); MIC [9]: 3.1 µg/mL (≈ 3.77 µM); MIC [12]: 6.3 µg/mL (≈ 7.66 µM) |
| CN[C@@H]1[C@H](O[C@H]2[C@H](O[C@H]3[C@H](O)[C@@H](O)[C@H](N=C(N)N)[C@@H](O)[C@@H]3N=C(N)N)O[C@@H](C)[C@]2(O)C=O)O[C@@H](CO)[C@H](O)[C@H]1O [STREPTOMYCIN] |  |  |  |  |  | 0.3 (≈ 0.516 µM) |  |  |  |  |  |  |  |  |
| CO[C@H]1[C@H](O)C=C2C(=O)c3c(cc(C)c(-c4c(C)cc5c(c4O)C(=O)C4=CC[C@H](OC)[C@@H](O)[C@]4(C)O5)c3O)O[C@@]2(C)[C@@H]1O | 1200 | 12800 | 1000 | inactive | > 50 | 6.3 (≈ 10.6 µM) | inactive | inactive | inactive | 600 | inactive | inactive | 1300 |  |
| Cc1c2ccncc2c(C)c2c1[nH]c1ccccc12 [ELLIPTECINE] | 7900 |  | 9100 |  |  |  |  |  |  |  |  |  | 6100 |  |
| COC1=C[C@]2(C)Oc3c(c(O)cc(C)c3-c3c(C)cc(O)c4c3O[C@]3(C)C(=CC[C@H](OC)[C@H]3O)C4=O)C(=O)[C@@H]2CC1=O | 6100 | 17600 | 3500 | inactive | > 50 | 12.5 (≈ 21.7 µM) | inactive | inactive | inactive | 4800 | inactive | inactive | 9700 |  |
| CO[C@H]1CC=C2C(=O)c3c(O)cc(C)c(-c4c(C)cc(O)c5c4O[C@]4(C)C(=CC[C@H](OC)[C@@H]4O)C5=O)c3O[C@@]2(C)[C@@H]1O | 4200 | 27900 | 2800 | inactive | > 50 | 6.3 (≈ 10.9 µM) | inactive | inactive | inactive | 2600 | inactive | inactive | 4700 |  |
| CO[C@H]1CC=C2C(=O)c3c(cc(C)c(-c4c(C)cc5c(c4O)C(=O)C4=CC[C@H](OC)[C@H](OC(C)=O)[C@]4(C)O5)c3O)O[C@@]2(C)[C@@H]1O | 900 | 7200 | 1000 | inactive | 12.5 (≈ 20.1 µM) | 6.3 (≈ 10.2 µM) | inactive | inactive | inactive | 1400 | inactive | inactive | 1500 |  |
| CO[C@H]1CC=C2C(=O)c3c(cc(C)c(-c4c(C)cc5c(c4O)C(=O)C4=CC[C@H](OC)[C@H](O)[C@]4(C)O5)c3O)O[C@@]2(C)[C@@H]1O | 2400 | > 86400 | 1200 | inactive | 12.5 (≈ 21.6 µM) | 25 (≈ 43.2 µM) | inactive | inactive | inactive | 1000 | inactive | inactive | 3400 |  |
| CC/C(=C(\c1ccccc1)c1ccc(OCCN(C)C)cc1)c1ccccc1 [TAMOXIFEN] |  | 19200 |  |  |  |  |  |  |  |  |  |  |  |  |
| O=C(N[C@H](CO)[C@H](O)c1ccc([N+](=O)[O-])cc1)C(Cl)Cl [CHLORAMPHENICOL] |  |  |  |  |  |  |  |  |  |  |  |  |  | MIC [11]: 8 µg/mL (≈ 24.8 µM) |
| CC[C@@H](CO)NCCN[C@@H](CC)CO [ETHAMBUTOL] |  |  |  |  |  | 0.9 (≈ 4.4 µM) |  |  |  |  |  |  |  |  |
| O[C@@H](c1cc(C(F)(F)F)nc2c(C(F)(F)F)cccc12)[C@H]1CCCCN1 [(S,R)-MEFLOQUINE] |  |  |  |  |  |  |  |  |  | 70 |  |  |  |  |
| CO[C@H]1CC=C2C(=O)c3c(O)cc(C)c(-c4c(C)cc(O)c5c4O[C@]4(C)C(=CC(=O)[C@H](OC)[C@H]4O)C5=O)c3O[C@@]2(C)[C@@H]1O | 4200 | 25500 | 1700 | inactive | > 50 | 12.5 (≈ 21.1 µM) | inactive | inactive | inactive | 6100 | inactive | inactive | 4900 |  |
| CN[C@H](CC(C)C)C(=O)N[C@H]1C(=O)N[C@@H](CC(N)=O)C(=O)N[C@H]2C(=O)N[C@H]3C(=O)N[C@H](C(=O)N[C@H](C(=O)O)c4cc(O)cc(O)c4-c4cc3ccc4O)[C@H](O)c3ccc(c(Cl)c3)Oc3cc2cc(c3O[C@@H]2O[C@H](CO)[C@@H](O)[C@H](O)[C@H]2O[C@H]2C[C@](C)(N)[C@H](O)[C@H](C)O2)Oc2ccc(cc2Cl)[C@H]1O [VANCOMYCIN] |  |  |  |  |  |  |  |  |  |  |  |  |  | MIC [8]: 2 µg/mL (≈ 1.38 µM) |
| NNC(=O)c1ccncc1 [ISONIAZID] |  |  |  |  |  | 0.1 (≈ 0.729 µM) |  |  |  |  |  |  |  |  |
| CC1COc2c(N3CCN(C)CC3)c(F)cc3c(=O)c(C(=O)O)cn1c23 (configuration not stated) [OFLOXACIN] |  |  |  |  |  | 0.4 (≈ 1.11 µM) |  |  |  |  |  |  |  |  |
| CO[C@H]1[C@H](O)C=C2C(=O)c3c(O)cc(C)c(-c4c(C)cc(O)c5c4O[C@]4(C)C(=CC[C@H](OC)[C@H]4O)C5=O)c3O[C@@]2(C)[C@@H]1O | 2200 | 63200 | 1000 | inactive | > 50 | 25 (≈ 42 µM) | inactive | inactive | inactive | 1700 | inactive | inactive | 63500 |  |
